Experiments:
Binding to lipid A = details: binding of lipid A; read-out: dissociation constant
[1] = Binding to simple sugars like glucosamine; details: much lower affinity than for lipid A

With “tetratryptophan ter-cyclopentane [TWTCP]” the Kd (Binding to lipid A) was 0.592 µM and the Kd [1] was about 20 µM.
